Here are results for three compounds from patent US20220177538A1, “CO-AGONISTS AT GLP-1 AND GIP RECEPTORS SUITABLE FOR ORAL DELIVERY” (Novo Nordisk A/S, priority 2020, published 2022).

The target in one series is human GLP-1 receptor (Homo sapiens, UniProt P43220). Description: In vitro functional potency, CRE luciferase reporter, whole BHK cells (hGLP-1R). The conditions noted are these: BHK CRE luc2P hGLP-1R cells. It counts as cell-based. Further details: expressed in transfected cells; host or cells: BHK (parent line BHKTS13), clone BHK CRE luc2P hGLP-1R. The method, boiled down:
(§1)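 BHK CRE luc2P cells stably expressing hGIPR or hGLP-1R were seeded at 5000 cells/well overnight. They were treated 3 h at 37° C with a 12-point, 3.5-fold compound series in buffer with or without HSA, and luciferase luminescence was read. Values come from log(agonist)-response regression, averaging at least two replicates.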
For orientation: A reporter such as luciferase makes a cellular process visible.

The target in another series is T1, human GIP receptor (Homo sapiens, UniProt P48546).
T1 construct: expressed in transfected cells; host or cells: BHK (parent line BHKTS13), clone BHK CRE luc2P hGIPR
T1 sequence (P48546 22-466): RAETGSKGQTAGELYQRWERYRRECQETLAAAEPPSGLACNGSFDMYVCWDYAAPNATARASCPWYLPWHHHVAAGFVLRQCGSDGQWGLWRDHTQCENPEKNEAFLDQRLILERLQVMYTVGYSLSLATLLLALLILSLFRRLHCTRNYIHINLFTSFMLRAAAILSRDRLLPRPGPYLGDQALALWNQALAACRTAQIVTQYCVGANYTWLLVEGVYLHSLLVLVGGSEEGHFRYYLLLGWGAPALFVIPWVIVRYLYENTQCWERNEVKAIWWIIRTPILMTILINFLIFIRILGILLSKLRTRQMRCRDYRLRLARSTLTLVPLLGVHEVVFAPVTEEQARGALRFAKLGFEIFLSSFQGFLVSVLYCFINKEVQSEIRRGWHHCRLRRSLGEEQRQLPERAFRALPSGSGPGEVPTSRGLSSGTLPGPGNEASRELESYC
Description: In vitro functional potency, CRE luciferase reporter, whole BHK cells (hGIPR). It counts as cell-based. The following applies: BHK CRE luc2P hGIPR cells. The method, boiled down:
as §1

Series [1] can be described thus: Pharmacokinetic study in dogs after oral dosing of tablets with SNAC. It counts as in vivo, Beagle dogs. The conditions noted are these: dog, in vivo, po; for Tmax / half-life: male, Beagle. The method, boiled down:
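Male beagle dogs (9-17 kg), fasted, received a single oral tablet with 100-300 mg SNAC and 3-4 mg test substance, groups of 6-8.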

Where [2] appears, read: 0% HSA, read-out: hGLP-1R, CRE Luc 0% HSA EC50.
The mark [3] stands for this setting: hGLP-1R, CRE Luc 1% HSA EC50, 1% HSA.
[4] abbreviates: 0% HSA, read-out: hGIPR, CRE Luc 0% HSA EC50.
The mark [5] stands for this setting: hGIPR, CRE Luc 1% HSA EC50, 1% HSA.

Like-named read-outs stand apart in the source and are kept apart here. Marks after values point to notes of the source that are not given here. Starred links: 1 amine or outer side, 2 acyl side, 3 side chain; linkers in the order of their positions; H or OH if unused. Non-standard residues stand in square brackets, D forms with d. Residues, ends and D or L forms follow the SMILES beside them. Groups on a side chain read outwards from the residue. *: point of attachment. C18 diacid = O=C(O)CCCCCCCCCCCCCCCCC(=O)*; γGlu = O=C(O)[C@H](CCC(=O)[*:2])N[*:1]; εLys = N[C@@H](CCCCN[*:1])C(=O)[*:2]; Aib = CC(C)(N)C(=O)O

Sequence of human GLP-1 receptor (P43220 24-463): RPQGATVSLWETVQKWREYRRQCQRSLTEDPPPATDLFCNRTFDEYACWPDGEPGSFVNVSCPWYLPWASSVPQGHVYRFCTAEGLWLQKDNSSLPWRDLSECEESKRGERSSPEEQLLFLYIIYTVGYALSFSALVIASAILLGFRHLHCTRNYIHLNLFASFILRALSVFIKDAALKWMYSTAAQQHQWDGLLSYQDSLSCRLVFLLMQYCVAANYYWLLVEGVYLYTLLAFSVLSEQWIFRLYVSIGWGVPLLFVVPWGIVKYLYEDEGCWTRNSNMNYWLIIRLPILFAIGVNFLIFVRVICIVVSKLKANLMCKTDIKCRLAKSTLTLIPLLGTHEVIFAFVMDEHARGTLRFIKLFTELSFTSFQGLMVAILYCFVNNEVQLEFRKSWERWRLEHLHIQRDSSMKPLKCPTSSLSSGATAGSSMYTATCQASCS

As for `CC[C@H](C)[C@H](NC(=O)[C@H](Cc1ccccc1)NC(=O)[C@H](CCC(=O)O)NC(=O)[C@H](Cc1c[nH]cn1)NC(=O)[C@H](C)NC(=O)[C@H](C)NC(=O)[C@H](CCC(N)=O)NC(=O)[C@H](CCCCNC(=O)[C@@H](N)CCCCNC(=O)[C@@H](N)CCCCNC(=O)CC[C@H](NC(=O)CCCCCCCCCCCCCCCCC(=O)O)C(=O)O)NC(=O)[C@H](CCC(=O)O)NC(=O)[C@H](CC(C)C)NC(=O)[C@H](CC(C)C)NC(=O)[C@@H](NC(=O)[C@H](CO)NC(=O)[C@H](Cc1ccc(O)cc1)NC(=O)[C@H](CC(=O)O)NC(=O)[C@H](CO)NC(=O)[C@@H](NC(=O)[C@H](Cc1ccccc1)NC(=O)[C@@H](NC(=O)CNC(=O)[C@H](CCC(=O)O)NC(=O)C(C)(C)NC(=O)[C@@H](N)Cc1ccc(O)cc1)[C@@H](C)O)[C@@H](C)O)[C@@H](C)CC)C(=O)N[C@@H](CCC(=O)O)C(=O)N[C@@H](Cc1c[nH]c2ccccc12)C(=O)N[C@@H](CC(C)C)C(=O)N[C@@H](CC(C)C)C(=O)N[C@@H](C)C(=O)NCC(=O)NCC(=O)N1CCC[C@H]1C(=O)N[C@@H](CO)C(=O)N[C@@H](CO)C(=O)NCC(=O)N[C@@H](C)C(=O)N1CCC[C@H]1C(=O)N1CCC[C@H]1C(=O)N1CCC[C@H]1C(=O)N[C@@H](CO)C(=O)O` [Compound 30] (H-Y[Aib]EGTFTSDYSILLEK([εLys-εLys-γGlu-C18 diacid])QAAHEFIEWLLAGGPSSGAPPPS-OH), the EC50 (as a rule, the concentration needed to bring the measured effect to its halfway point) on human GLP-1 receptor (setting [2]) was determined as 0.0073 nM. Moreover, at human GLP-1 receptor (setting [3]), the EC50 turned out to be 0.267 nM. For the same compound, the EC50 at human GIP receptor (setting [4]) is 0.0032 nM. On human GIP receptor (setting [5]), this compound came in with an EC50 of 0.185 nM. Further, in series [1], the AUC/Dose turned out to be 6.5 kg·h/L; the Cmax/Dose worked out at 0.24 kg/L; the Tmax – broadly, the time from dosing to the highest level – is 0.8 h; the half-life (commonly the time in which the quantity being followed falls by half) is 81 h.

As to `CC[C@H](C)[C@H](NC(=O)[C@H](Cc1ccccc1)NC(=O)[C@H](CCC(=O)O)NC(=O)[C@H](Cc1c[nH]cn1)NC(=O)[C@H](C)NC(=O)[C@H](C)NC(=O)[C@H](CCC(N)=O)NC(=O)[C@H](CCCCNC(=O)[C@@H](N)CCCCNC(=O)[C@@H](N)CCCCNC(=O)CC[C@H](NC(=O)CCCCCCCCCCCCCCCCC(=O)O)C(=O)O)NC(=O)[C@H](CCC(=O)O)NC(=O)[C@H](CC(C)C)NC(=O)[C@H](CC(C)C)NC(=O)[C@@H](NC(=O)[C@H](CO)NC(=O)[C@H](Cc1ccc(O)cc1)NC(=O)[C@H](CC(=O)O)NC(=O)[C@H](CO)NC(=O)[C@@H](NC(=O)[C@H](Cc1ccccc1)NC(=O)[C@@H](NC(=O)CNC(=O)[C@H](CCC(=O)O)NC(=O)C(C)(C)NC(=O)[C@@H](N)Cc1ccc(O)cc1)[C@@H](C)O)[C@@H](C)O)[C@@H](C)CC)C(=O)N[C@@H](CC(N)=O)C(=O)N[C@@H](Cc1c[nH]c2ccccc12)C(=O)N[C@@H](CC(C)C)C(=O)N[C@@H](CC(C)C)C(=O)N[C@@H](C)C(=O)NCC(=O)NCC(=O)N1CCC[C@H]1C(=O)N[C@@H](CO)C(=O)N[C@@H](CO)C(=O)NCC(=O)N[C@@H](C)C(=O)N1CCC[C@H]1C(=O)N1CCC[C@H]1C(=O)N1CCC[C@H]1C(=O)N[C@@H](CO)C(=O)O` [Compound 26] (H-Y[Aib]EGTFTSDYSILLEK([εLys-εLys-γGlu-C18 diacid])QAAHEFINWLLAGGPSSGAPPPS-OH), the EC50 on human GLP-1 receptor (setting [2]) was 0.0074 nM. Further, the EC50 on human GLP-1 receptor (setting [3]) was 0.595 nM. On human GIP receptor (setting [4]), the EC50 was 0.0049 nM. In addition, the EC50 at human GIP receptor (setting [5]) stood at 0.153 nM. In series [1], the AUC/Dose was 27.4* kg * h/L, the Cmax/Dose is 0.49* kg/L, the Tmax came out at 1.2 h and the half-life is 70 h.

Turning to `CC[C@H](C)[C@H](NC(=O)[C@H](Cc1ccccc1)NC(=O)[C@H](CCC(=O)O)NC(=O)[C@H](CCC(=O)O)NC(=O)[C@H](C)NC(=O)[C@H](C)NC(=O)[C@H](CCC(N)=O)NC(=O)[C@H](CCCCNC(=O)[C@@H](N)CCCCNC(=O)[C@@H](N)CCCCNC(=O)CC[C@H](NC(=O)CCCCCCCCCCCCCCCCC(=O)O)C(=O)O)NC(=O)[C@H](CCC(=O)O)NC(=O)[C@H](CC(C)C)NC(=O)[C@H](CC(C)C)NC(=O)[C@@H](NC(=O)[C@H](CO)NC(=O)[C@H](Cc1ccc(O)cc1)NC(=O)[C@H](CC(=O)O)NC(=O)[C@H](CO)NC(=O)[C@@H](NC(=O)[C@H](Cc1ccccc1)NC(=O)[C@@H](NC(=O)CNC(=O)[C@H](CCC(=O)O)NC(=O)C(C)(C)NC(=O)[C@@H](N)Cc1ccc(O)cc1)[C@@H](C)O)[C@@H](C)O)[C@@H](C)CC)C(=O)N[C@@H](CC(N)=O)C(=O)N[C@@H](Cc1c[nH]c2ccccc12)C(=O)N[C@@H](CC(C)C)C(=O)N[C@@H](CC(C)C)C(=O)N[C@@H](C)C(=O)NCC(=O)NCC(=O)N1CCC[C@H]1C(=O)N[C@@H](CO)C(=O)N[C@@H](CO)C(=O)NCC(=O)N[C@@H](C)C(=O)N1CCC[C@H]1C(=O)N1CCC[C@H]1C(=O)N1CCC[C@H]1C(=O)N[C@@H](CO)C(=O)O` [Compound 25] (H-Y[Aib]EGTFTSDYSILLEK([εLys-εLys-γGlu-C18 diacid])QAAEEFINWLLAGGPSSGAPPPS-OH), the EC50 at human GLP-1 receptor (setting [2]) came out at 0.0155 nM. In addition, the EC50 at human GLP-1 receptor (setting [3]) worked out at 0.74 nM. Also, the EC50 at human GIP receptor (setting [4]) stood at 0.0072 nM. The compound further came in with an EC50 on human GIP receptor (setting [5]) of 0.263 nM. In addition, in series [1], the AUC/Dose was found to be 15.2 kg·h/L, the Cmax/Dose worked out at 0.30 kg/L, the Tmax is 1.8 h and the half-life is 43 h.
